Key:
human TLR7 = molecular target: T1, human TLR7 (Homo sapiens, UniProt Q9NYK1); assay: HEK-Blue hTLR7 reporter cell assay (SEAP, NF-kB/AP-1) for stimulation of human TLR7; assay type: cell-based; conditions: HEK-Blue hTLR7 cells, 24 h incubation, SEAP readout; read-out: TLR7_EC50
T1 construct: host or cells: HEK293 (HEK-Blue hTLR7)
T1 sequence (Q9NYK1 27-1049): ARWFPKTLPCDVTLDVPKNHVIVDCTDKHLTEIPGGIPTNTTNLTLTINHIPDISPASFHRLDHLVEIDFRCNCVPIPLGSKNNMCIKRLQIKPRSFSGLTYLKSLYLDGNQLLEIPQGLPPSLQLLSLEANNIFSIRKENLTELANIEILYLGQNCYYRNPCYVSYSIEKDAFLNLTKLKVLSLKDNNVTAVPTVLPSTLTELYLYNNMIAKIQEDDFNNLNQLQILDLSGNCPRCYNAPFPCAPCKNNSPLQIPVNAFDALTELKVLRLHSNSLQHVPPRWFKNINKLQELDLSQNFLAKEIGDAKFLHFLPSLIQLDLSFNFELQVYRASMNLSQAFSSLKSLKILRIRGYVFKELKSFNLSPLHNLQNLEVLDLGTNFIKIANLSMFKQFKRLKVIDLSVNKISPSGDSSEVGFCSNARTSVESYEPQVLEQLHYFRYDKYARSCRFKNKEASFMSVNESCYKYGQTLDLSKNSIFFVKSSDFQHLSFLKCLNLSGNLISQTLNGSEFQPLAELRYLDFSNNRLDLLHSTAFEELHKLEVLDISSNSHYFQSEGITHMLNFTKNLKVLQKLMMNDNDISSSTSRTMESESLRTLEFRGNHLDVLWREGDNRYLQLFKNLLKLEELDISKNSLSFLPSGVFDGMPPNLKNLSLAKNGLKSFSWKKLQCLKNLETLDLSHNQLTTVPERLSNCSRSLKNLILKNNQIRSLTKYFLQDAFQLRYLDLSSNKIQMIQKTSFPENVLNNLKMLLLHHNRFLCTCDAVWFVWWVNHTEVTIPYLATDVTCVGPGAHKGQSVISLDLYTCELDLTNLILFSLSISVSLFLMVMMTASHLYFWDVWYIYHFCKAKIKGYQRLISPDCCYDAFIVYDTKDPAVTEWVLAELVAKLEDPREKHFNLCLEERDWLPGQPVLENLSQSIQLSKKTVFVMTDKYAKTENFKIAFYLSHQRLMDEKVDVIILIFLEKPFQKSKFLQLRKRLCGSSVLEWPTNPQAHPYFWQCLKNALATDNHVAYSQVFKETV
Outline: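 HEK293 cells expressing hTLR7 with NF-κB/AP-1-driven SEAP reporter, seeded 3.10E4 cells/well, pre-incubated 18–24 h, then exposed to 3-fold compound dilutions (0.01–20 μM) for 24 h at 37 °C. Supernatant SEAP read with QUANTI-Blue; EC50 as concentration giving 50% activation.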

human TLR8 = molecular target: T2, human TLR8 (Homo sapiens, UniProt Q9NR97); assay: HEK-Blue hTLR8 reporter cell assay (SEAP, NF-kB/AP-1) for stimulation of human TLR8; assay type: cell-based; conditions: HEK-Blue hTLR8 cells, 24 h incubation, SEAP readout; read-out: TLR8_EC50
T2 construct: host or cells: HEK293 (HEK-Blue hTLR8)
T2 sequence (Q9NR97 27-1041): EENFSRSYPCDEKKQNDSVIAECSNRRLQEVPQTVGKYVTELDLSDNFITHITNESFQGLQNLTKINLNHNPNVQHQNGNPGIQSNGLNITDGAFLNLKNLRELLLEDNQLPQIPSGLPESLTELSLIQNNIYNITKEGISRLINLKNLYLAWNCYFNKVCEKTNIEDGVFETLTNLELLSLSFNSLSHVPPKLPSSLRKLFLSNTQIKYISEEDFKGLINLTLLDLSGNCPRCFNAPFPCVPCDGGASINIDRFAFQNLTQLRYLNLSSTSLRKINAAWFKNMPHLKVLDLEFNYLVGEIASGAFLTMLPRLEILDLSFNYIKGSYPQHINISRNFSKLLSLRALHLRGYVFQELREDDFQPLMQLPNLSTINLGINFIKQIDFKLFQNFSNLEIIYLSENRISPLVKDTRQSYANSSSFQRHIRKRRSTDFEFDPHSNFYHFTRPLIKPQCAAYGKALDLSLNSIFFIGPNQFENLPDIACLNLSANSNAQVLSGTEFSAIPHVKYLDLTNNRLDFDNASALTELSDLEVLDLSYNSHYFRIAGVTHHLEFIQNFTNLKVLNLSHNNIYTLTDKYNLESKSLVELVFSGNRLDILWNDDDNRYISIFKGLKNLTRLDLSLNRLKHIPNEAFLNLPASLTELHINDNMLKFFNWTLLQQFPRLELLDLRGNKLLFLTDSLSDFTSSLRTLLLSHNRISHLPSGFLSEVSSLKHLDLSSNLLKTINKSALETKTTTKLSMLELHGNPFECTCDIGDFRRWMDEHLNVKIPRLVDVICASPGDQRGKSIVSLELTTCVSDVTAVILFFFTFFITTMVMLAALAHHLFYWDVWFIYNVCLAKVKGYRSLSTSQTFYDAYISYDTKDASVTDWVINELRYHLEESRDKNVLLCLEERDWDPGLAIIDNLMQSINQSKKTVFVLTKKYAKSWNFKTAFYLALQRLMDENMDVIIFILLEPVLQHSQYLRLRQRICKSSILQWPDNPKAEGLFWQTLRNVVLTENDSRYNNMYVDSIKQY
Outline: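 HEK293 cells carrying hTLR8 and a SEAP reporter driven by NF-κB/AP-1 sites were seeded at 3.10E4 cells/well and held 18 to 24 h at 37° C., 5% CO2 before compound addition. Supernatant SEAP measured with QUANTI-Blue™.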

CCCCc1nc2c(N)nnc(OC(C)C)c2n1Cc1ccc(CNC(=O)CC)cc1 [Compound 103, N-(4-((4-amino-2-butyl-7-isopropoxy-1H-imidazo[4,5-d]pyridazin-1-yl)methyl)benzyl)propionamide]
EC50 (human TLR7): 55 nM | EC50 (human TLR8): 15.5 µM

CCCCc1nc2c(N)nnc(OC(C)C)c2n1Cc1ccc(CNCCOC)cc1 [Compound 104, 2-butyl-7-isopropoxy-1-(4-(((2-methoxyethyl)amino)methyl)benzyl)-1H-imidazo[4,5-d]pyridazin-4-amine]
EC50 (human TLR7): 22 nM | EC50 (human TLR8): 0.546 µM

CCCCc1nc2c(N)nnc(OC(C)C)c2n1Cc1ccc(CNCCOCCOCCOCCOCCOCCOC)cc1 [Compound 105, 2-butyl-4-isopropoxy-3-[[4-[[2-[2-[2-[2-[2-(2-methoxyethoxy)ethoxy]ethoxy]ethoxy]ethoxy]ethylamino]methyl]phenyl]methyl]imidazo[4,5-d]pyridazin-7-amine]
EC50 (human TLR7): 114 nM | EC50 (human TLR8): > 20 µM

CCCCc1nc2c(N)nnc(OC(C)C)c2n1Cc1ccc(CNC(=O)CCOC)cc1 [Compound 107, N-(4-((4-amino-2-butyl-7-isopropoxy-1H-imidazo[4,5-d]pyridazin-1-yl)methyl)benzyl)-3-methoxypropanamide]
EC50 (human TLR7): 205 nM | EC50 (human TLR8): > 20 µM

CCCCc1nc2c(N)nnc(OC(C)C)c2n1Cc1ccc(CNCCOCCOC)cc1 [Compound 108, 2-butyl-7-isopropoxy-1-(4-(((2-(2-methoxyethoxy)ethyl)amino)methyl)benzyl)-1H-imidazo[4,5-d]pyridazin-4-amine]
EC50 (human TLR7): 29 nM | EC50 (human TLR8): 1.4 µM

CCCCCCNCc1ccc(Cn2c(CCCC)nc3c(N)nnc(OC(C)C)c32)cc1 [Compound 109, 2-butyl-1-(4-((hexylamino)methyl)benzyl)-7-isopropoxy-1H-imidazo[4,5-d]pyridazin-4-amine]
EC50 (human TLR7): 50 nM | EC50 (human TLR8): 0.243 µM

CCCCCCCCCCNCc1ccc(Cn2c(CCCC)nc3c(N)nnc(OC(C)C)c32)cc1 [Compound 110, 2-butyl-1-(4-((decylamino)methyl)benzyl)-7-isopropoxy-1H-imidazo[4,5-d]pyridazin-4-amine]
EC50 (human TLR7): 734 nM | EC50 (human TLR8): 2.85 µM

CCCCc1nc2c(N)nnc(OC(C)C)c2n1Cc1ccc(CNC(=O)OCC)cc1 [Compound 111, ethyl (4-((4-amino-2-butyl-7-isopropoxy-1H-imidazo[4,5-d]pyridazin-1-yl)methyl)benzyl)carbamate]
EC50 (human TLR7): 99 nM | EC50 (human TLR8): > 20 µM

CCCCc1nc2c(N)nnc(OC(C)C)c2n1Cc1ccc(CNC(=O)OCc2ccc(OC)cc2)cc1 [Compound 112, 4-methoxybenzyl (4-((4-amino-2-butyl-7-isopropoxy-1H-imidazo[4,5-d]pyridazin-1-yl)methyl)benzyl)carbamate]
EC50 (human TLR7): 248 nM | EC50 (human TLR8): > 20 µM

CCCCc1nc2c(N)nnc(OC(C)C)c2n1Cc1ccc(CNC(=O)NCC)cc1 [Compound 113, 1-(4-((4-amino-2-butyl-7-isopropoxy-1H-imidazo[4,5-d]pyridazin-1-yl)methyl)benzyl)-3-ethylurea]
EC50 (human TLR7): 120 nM | EC50 (human TLR8): > 20 µM

CCCCc1nc2c(N)nnc(OC(C)C)c2n1Cc1ccc(CNC(=O)OCc2ccc(NC(C)=O)cc2)cc1 [Compound 114, 4-acetamidobenzyl (4-((4-amino-2-butyl-7-isopropoxy-1H-imidazo[4,5-d]pyridazin-1-yl)methyl)benzyl)carbamate]
EC50 (human TLR7): 163 nM | EC50 (human TLR8): > 6.34 µM

CCCCc1nc2c(N)nnc(OC(C)C)c2n1Cc1ccc(CNS(C)(=O)=O)cc1 [Compound 115, N-(4-((4-amino-2-butyl-7-isopropoxy-1H-imidazo[4,5-d]pyridazin-1-yl)methyl)benzyl)methanesulfonamide]
EC50 (human TLR7): 107 nM | EC50 (human TLR8): > 16.5 µM

CCCCc1nc2c(N)nnc(OC(C)C)c2n1Cc1ccc(CN(C)C)cc1 [Compound 116, 2-butyl-1-(4-((dimethylamino)methyl)benzyl)-7-isopropoxy-1H-imidazo[4,5-d]pyridazin-4-amine]
EC50 (human TLR7): 34 nM | EC50 (human TLR8): 1.82 µM

CCCCc1nc2c(N)nnc(OC(C)C)c2n1Cc1ccc(CNCC(=O)OC(C)(C)C)cc1 [Compound 117, tert-butyl (4-((4-amino-2-butyl-7-isopropoxy-1H-imidazo[4,5-d]pyridazin-1-yl)methyl)benzyl)glycinate]
EC50 (human TLR7): 190 nM | EC50 (human TLR8): 8.88 µM

CCCCc1nc2c(N)nnc(OC(C)C)c2n1Cc1ccc(CNC)cc1 [Compound 118, 2-butyl-7-isopropoxy-1-(4-((methylamino)methyl)benzyl)-1H-imidazo[4,5-d]pyridazin-4-amine]
EC50 (human TLR7): 11 nM | EC50 (human TLR8): 1.49 µM

CCCCc1nc2c(N)nnc(OC(C)C)c2n1Cc1ccc(CNCCC(=O)OC(C)(C)C)cc1 [Compound 119, tert-butyl 3-((4-((4-amino-2-butyl-7-isopropoxy-1H-imidazo[4,5-d]pyridazin-1-yl)methyl)benzyl)amino)propanoate]
EC50 (human TLR7): 143 nM | EC50 (human TLR8): 2.13 µM

CCCCc1nc2c(N)nnc(OC(C)C)c2n1Cc1ccc(CNCCOCCOCCOC)cc1 [Compound 120, 1-(4-(5,8,11-trioxa-2-azadodecyl)benzyl)-2-butyl-7-isopropoxy-1H-imidazo[4,5-d]pyridazin-4-amine]
EC50 (human TLR7): 133 nM | EC50 (human TLR8): 14.4 µM

CCCCc1nc2c(N)nnc(OC(C)C)c2n1Cc1ccc(CNCCOCCOCCOCCOC)cc1 [Compound 121, 2-butyl-4-isopropoxy-3-[[4-[[2-[2-[2-(2-methoxyethoxy)ethoxy]ethoxy]ethylamino]methyl]phenyl]methyl]imidazo[4,5-d]pyridazin-7-amine]
EC50 (human TLR7): 86 nM | EC50 (human TLR8): 15.9 µM

CCCCc1nc2c(N)nnc(OC(C)C)c2n1Cc1ccc(CNCCOCCOCCOCCOCCOCCOCCOCCOC)cc1 [Compound 122, 2-butyl-4-isopropoxy-3-[[4-[[2-[2-[2-[2-[2-[2-[2-(2-methoxyethoxy)ethoxy]ethoxy]ethoxy]ethoxy]ethoxy]ethoxy]ethylamino]methyl]phenyl]methyl]imidazo[4,5-d]pyridazin-7-amine di2,2,2-trifluoroacetate]
EC50 (human TLR7): 729 nM | EC50 (human TLR8): > 20 µM

Source: patent US12583861B2, “Derivatives of imidazo[4,5-d]pyridazine, their preparation and their therapeutic application” (SANOFI, priority 2021, dated 2026)
